Results on 5 compounds are retold here after US11419841B2, “Uses of lipophenolic compounds” (Universite De Montpellier, priority 2017, dated 2022).

SMILES strings stand for the structures. “Also recorded” adds a separate entry of the source.

Data set [1] addresses T1, MMP-9 (Homo sapiens, UniProt P14780).
T1 construct: endogenous in cells
Briefly: MMP-9 activity in TNF-alpha activated THP-1 cell line (gelatin zymography). Type of data set: cell-based. The conditions noted are these: for inhibition of MMP-9 activity: 30 μM, 24 h, THP-1 activated with 10 ng/mL TNF-α, zymogram (FIG. 3); for dose-response effect on the inhibitory activity of MMP9: zymogram and curve (FIG. 4). How it is done: THP-1 cells (human monocytic THP-1 cell line) were cultured in 10% heated inactivated FBS RPMI 1640 medium supplemented with penicillin G 100 units/mL and streptomycin 100 μg/mL purchased from Fisher Scientific™ (Illkirch-Graffenstaden, France).
THP-1 cells were seeded (3×10^5 cell/well) in 24-well plate with 10 ng/mL TNF-α with or without 30 μM of resveratrol derivatives dissolved in DMSO. After 24 hours incubation at 37° C., supernatant was collected and tested on zymography.
Low-serum (1%) RPMI-1640 medium was used for the assessment of MMP-9 activity on TNF-alpha activated THP-1 cell line 3×10^6 cell/mL. Firstly, resveratrol and its derived lipophenolic compounds were dissolve in DMSO, and incubated at a final concentration of 30 μM with 10 ng/mL TNF-alpha treated THP-1 in CO2 incubator chamber for 24 hours at 37° C. After incubation, cell suspension was centrifuged at 1200 r.p.m for five minutes, supernatant was recovered and stored at −80° C. for zymogram analysis.
The anti MMP-9 activity was assessed using gelatin zymography. In brief, the collected supernatants were loaded on 10% SDS-polyacrylamide gel electrophoresis (PAGE) supplemented with 1% gelatin without reducing agents. After separation, gels were washed three times with 2.5% Triton X-100 and incubated with gelatinase buffer (NaCl 200 mM, Tris Base 50 mM, CaCl2) 5 mM and ZnCl2 0.25 mM; pH 7.5), for 24 hr at 37° C. on an orbital shaker at 100 r.p.m/min. Gels were further stained for one hour with Commassie Blue-staining solution (0.025% Commassie Blue, 40% methanol and 10% acetic acid) followed by destaining with 20% methanol and 10% glacial acetic acid solution until the clear bands appearance. Gels were photographed and analyzed by GelAnalyzer 2010a™ software.

Data set [2] relates to HUVEC cells and THP-1 cell line. The data set is described as follows: Cell viability assay (MTT assay). Type of data set: cell-based. The conditions noted are these: 10, 20, 40 μM, 72 h, MTT (FIG. 6). How it is done: The MTT assay is a test used to evaluate the cytotoxicity of compounds.
The cytotoxicity assay was carried out as described by Mosmann (Mosmann 1983). HUVEC cells and THP-1 cell line (1×10^4 cell/well) were seeded in 96-well plate and incubated CO2 incubator chamber at 37° C. for 24 h. Cells were treated with serial dilutions of lipophenolic derivative of resveratrol at a final concentration of 10, 20, 40 and 80 μM, and plate was incubated for 72 hours. Supernatant was discarded and MTT-serum-free medium was added to each plate and incubated for three additional hours. The formed formazan blue crystals were further dissolved by addition of 100 μL of 10% SDS in 0.1 N HCl to each plate for 2 hours. The optical density was measured at 570 nm (reference filter 690 nm) using a TECAN™ plate reader. Lethal Concentration 50% (LC50) was calculated using GraphPad Prism v.5 software.
(In general: Tetrazolium assays rely on reduction of a dye to a coloured formazan, in cell work by metabolically active cells.)

Data set [3] concerns TNF-α release by LPS-activated BV-2 microglia. Briefly: TNF-α release by LPS-activated BV-2 microglia (AlphaLISA). In kind it is cell-based, murine. As to conditions: 30 μM, 24 h after LPS, BV2 cells, mean±SEM (FIG. 7). The protocol: BV-2 cells that are derived from raf/myc-immortalised murine neonatal microglia are the most frequently used substitute for primary microglia (Blasi et al., 1990).
BV-2 cells were maintained in 75 cm2 culture flasks in Dulbecco's Modified Eagle's Medium (DMEM, Sigma) supplemented with 10% fetal bovine serum (FBS, Sigma) and 1% Penicillin-Streptomycin solution (Sigma), and cultured at 37° C. in a humidified atmosphere of 5% CO2.
BV-2 cells were plated on 24-well plates at a density of 10^5 cells per well. On the following day cells were subjected to different treatments. To study the effect of Resv-LA on TNF-alpha production by LPS activated BV-2 cells, the cells were incubated in medium containing 1 mg/ml LPS (Sigma-Aldrich) for 24 h, with or without Resv-LA (REV-LA) 30 μM.
Supernatants from untreated and treated cells were centrifuged at 5000 rpm for 5 minutes and assayed for their TNF-α contents using the TNF-α (mouse) AlphaLISA Detection Kit of Perkin-Elmer. TNF-α released was normalized by cell number and expressed as percentage of the maximal released obtained in the LPS-stimulated condition.
Data are expressed as mean±SEM. Statistical analysis of differences between groups was performed by using unpaired t-test/Mann-Whitney. […]

The subject of a further data set is HUVEC monolayer. Briefly: In vitro vascular permeability assay (FITC-dextran endothelial permeability assay). In kind it is cell-based, human. The conditions noted are these: 10 μM, 100 ng/mL TNF-α, 24 h (FIG. 5). The protocol:
Human umbilical vascular endothelial cells (HUVECs) were cultured in low serum (1%) EndoGro™ medium kit purchased from Merck Millipore™ (Paris, France). TNF-α was purchased from PeproTech™ (Neuilly-Sur-Seine, France). The permeability of HUVEC monolayer seeded on collagen coated semi-permeable inserts was examined using in vitro vascular permeability assay kit, Millipore™ (Paris, France) according to the manufacturer protocol. Endothelial cells are seeded into the inserts and cultured until complete monolayer formation occurs. After forming confluent monolayer by seeding HUVECs (4×10^5 cells/insert) for 48 hours, medium was replaced with 100 ng/mL TNF-α in medium with and without MMP-9 inhibitors at 10 μM and incubated for 24 hours in CO2 chamber at 37° C. Lipophenolic derivatives of resveratrol were dissolved in DMSO, and SB-3CT (gelatinase inhibitor) was dissolved in DMSO. At the end of the permeability treatment, 150 μl FITC-dextran in media solution were incubated for 20 minutes at room temperature protected from light. FITC-dextran permeates the treated cell monolayer into the plate well. Permeation was stopped by removing the inserts and 100 μl were withdrawn from the receiving tray and added to 96-well opaque plate for fluorescence measurement. The resulting fluorescence in the plate well is measured and used as an indicator of the extent of monolayer permeability. […]

The test system of data set [4] is MMP-9. As to conditions: Cheng et al. 2009, Gao et al. 2014; cited from earlier work.
The conditions of data set [5]: in vivo; Walle 2011, Chang et al. 2016; cited from earlier work.

T1 sequence (P14780 94-707): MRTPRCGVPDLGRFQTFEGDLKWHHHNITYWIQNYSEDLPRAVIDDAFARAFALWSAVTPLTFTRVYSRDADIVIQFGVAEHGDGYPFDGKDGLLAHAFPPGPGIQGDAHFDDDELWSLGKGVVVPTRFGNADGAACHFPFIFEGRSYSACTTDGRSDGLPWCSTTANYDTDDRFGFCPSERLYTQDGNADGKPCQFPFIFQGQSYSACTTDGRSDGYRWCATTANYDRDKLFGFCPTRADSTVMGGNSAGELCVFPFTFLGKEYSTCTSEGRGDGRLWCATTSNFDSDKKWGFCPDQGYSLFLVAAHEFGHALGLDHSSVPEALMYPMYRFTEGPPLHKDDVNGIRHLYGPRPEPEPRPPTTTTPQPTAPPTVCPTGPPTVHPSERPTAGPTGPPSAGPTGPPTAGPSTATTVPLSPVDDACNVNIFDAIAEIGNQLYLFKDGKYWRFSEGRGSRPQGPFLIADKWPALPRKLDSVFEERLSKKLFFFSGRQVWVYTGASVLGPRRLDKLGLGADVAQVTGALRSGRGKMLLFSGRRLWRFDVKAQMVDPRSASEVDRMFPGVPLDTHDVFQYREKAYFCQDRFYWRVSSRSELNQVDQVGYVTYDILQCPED

As for `CC/C=C\C/C=C\C/C=C\C/C=C\C/C=C\C/C=C\CCC(=O)Oc1ccc(/C=C/c2cc(O)cc(O)c2)cc1` [4′-Resv-DHA, (4,7,10,13,16,19 Z)-4-((E)-3,5-dihydroxyphenylstyryl)phenyl docosa-4,7,10,13,16,19-hexaenoate], the “inhibition of MMP-9 activity” value on MMP-9 [1] is recorded as “reduced MMP-9 activity”.

For the compound `CC/C=C\C/C=C\C/C=C\C/C=C\C/C=C\C/C=C\CCC(=O)Oc1cc(O)cc(/C=C/c2ccc(O)cc2)c1` [Compound 3-Resv-DHA, (4,7,10,13,16,19Z)-3-hydroxy-5-((E)-4-hydroxystyryl)phenyl docosa-4,7,10,13,16,19-hexaenoate], the “inhibition of MMP-9 activity” value against MMP-9 [1] is recorded as “did not show any inhibitory activity; also recorded: not active”.

On to `CCCCCCCCCCCCCCCCCCCCCC(=O)Oc1ccc(/C=C/c2cc(O)cc(O)c2)cc1` [Resv-C22, (E)-4-(3,5-dihydroxystyryl)phenyl docosanoate], for which the “cytotoxic effect on viability” value in data set [2] is on record as “does not have cytotoxic effect”. Also, on MMP-9 [1], the “inhibition of MMP-9 activity” value is “demonstrated inhibition of MMP9-activity” and the “dose-response effect on the inhibitory activity of MMP9” value is recorded as “dose-response effect”.

In the case of `CCCCC/C=C\C/C=C\CCCCCCCC(=O)Oc1ccc(/C=C/c2cc(O)cc(O)c2)cc1` [Resv-LA, (9,12Z)-4-((E)-3,5-dihydroxystyryl)phenyl octadeca-9,12-dienoate], the “TNF-α released, as percentage of the maximal released obtained in the LPS-stimulated condition” value in data set [3] was found to be 66.1±4.2 percentage. Also, the “inhibition of TNF-alpha-enhanced permeability of the HUVEC monolayer” value with HUVEC monolayer is recorded as “demonstrated inhibition”. Moreover, the “cytotoxic effect on viability” value in data set [2] is on record as “does not have cytotoxic effect”. At MMP-9 [1], the “inhibition of MMP-9 activity” value is “best activity; also recorded: demonstrated inhibition of MMP9-activity” and the “dose-response effect on the inhibitory activity of MMP9” value is on record as “dose-response effect”.

In the case of `Oc1ccc(C=Cc2cc(O)cc(O)c2)cc1` [Resveratrol], the “inhibition of the activity of MMP-9 (reported)” value with MMP-9 [4] is reported as “inhibit the activity of MMP-9”. For the same compound, in data set [5], the bioavailability entry is reported as “poor bioavailability”.
